Laboratory results reported in patent US4189349A, “α,δ-Diaminoacid and its lactam” (Rhone-Poulenc Industries, priority 1977, dated 1980).
Values after ≈ are worked out from the molar mass of the structure shown. Read-outs that look alike come from different tables or passages of the source.

Legend:
[1] = Solubility (French Pharmacopoeia terms / in water); format: physicochemical
Method: 32232 RP and 35391 RP are of particular interest because of their activity on fungi and yeasts. 32232 RP, in the form of the internal salt, is characterised by the following physical properties:
Solubility: 35391 RP is soluble in water at the rate of about 10 mg/cc.

[2] = Potentiometric titration of an aqueous solution; format: physicochemical; conditions: water
From the text: The potentiometric equivalent is about 390.
The potentiometric equivalent is about 400.
The potentiometric equivalent is about 370.

bacteria = assay: Bacteriostatic activity towards bacteria; format: cell-based
mice = assay: Toxicity in mice; conditions: mouse, in vivo, 1000 mg/kg
[3] = Anti-fungal activity in vitro by dilution method; format: cell-based; conditions: Trichophyton rubrum; 95 to 100% inhibition; Microsporum rubrum; read-out: Minimum active concentration (AC 95-100)
Method: (§1) Anti-fungal activity in vitro: The anti-fungal activity of 32232 RP and of 35391 RP towards a certain number of fungi has been determined by one of the dilution methods usually employed for this purpose. For each fungus, the smallest concentration of active substance which, under defined conditions, causes 95 to 100% inhibition of the fungus (AC 95-100) was determined. The results of the various determinations are summarised in Table III below, where the minimum active concentrations are expressed in micrograms of substance per cc. of test medium.

Aspergillus fumigatus = assay: Anti-fungal activity in vitro by dilution method; format: cell-based; conditions: 95 to 100% inhibition, read-out: Minimum active concentration (AC 95-100)
Method: as §1

Aspergillus niger = assay: Anti-fungal activity in vitro by dilution method; format: cell-based; conditions: 95 to 100% inhibition, read-out: Minimum active concentration (AC 95-100)
Method: as §1

Blastomyces dermatitidis = assay: Anti-fungal activity in vitro by dilution method; format: cell-based; conditions: 95 to 100% inhibition, read-out: Minimum active concentration (AC 95-100)
Method: as §1

Botrytis cinerea = assay: Anti-fungal activity in vitro by dilution method; format: cell-based; conditions: 95 to 100% inhibition, read-out: Minimum active concentration (AC 95-100)
Method: as §1

Candida albicans Hi 7 = assay: Anti-fungal activity in vitro by dilution method; format: cell-based; conditions: HI7, 95 to 100% inhibition, read-out: Minimum active concentration (AC 95-100)
Method: as §1

Candida albicans IP 200 = assay: Anti-fungal activity in vitro by dilution method; format: cell-based; conditions: IP200, 95 to 100% inhibition, read-out: Minimum active concentration (AC 95-100)
Method: as §1

Candida albicans Pa 1 = assay: Anti-fungal activity in vitro by dilution method; format: cell-based; conditions: PA1, 95 to 100% inhibition, read-out: Minimum active concentration (AC 95-100)
Method: as §1

Candida krusei IP 208 = assay: Anti-fungal activity in vitro by dilution method; format: cell-based; conditions: Pichia kudriavzevii, IP208, 95 to 100% inhibition, read-out: Minimum active concentration (AC 95-100)
Method: as §1

Epidermophyton floccosum = assay: Anti-fungal activity in vitro by dilution method; format: cell-based; conditions: 95 to 100% inhibition, read-out: Minimum active concentration (AC 95-100)
Method: as §1

Fusarium oxysporum = assay: Anti-fungal activity in vitro by dilution method; format: cell-based; conditions: 95 to 100% inhibition, read-out: Minimum active concentration (AC 95-100)
Method: as §1

Hansenula anomala = assay: Anti-fungal activity in vitro by dilution method; format: cell-based; conditions: 95 to 100% inhibition, read-out: Minimum active concentration (AC 95-100)
Method: as §1

Microsporum canis = assay: Anti-fungal activity in vitro by dilution method; format: cell-based; conditions: 95 to 100% inhibition, read-out: Minimum active concentration (AC 95-100)
Method: as §1

Mucor corymbifer = assay: Anti-fungal activity in vitro by dilution method; format: cell-based; conditions: Lichtheimia corymbifera, 95 to 100% inhibition, read-out: Minimum active concentration (AC 95-100)
Method: as §1

Penicillium digitatum = assay: Anti-fungal activity in vitro by dilution method; format: cell-based; conditions: 95 to 100% inhibition, read-out: Minimum active concentration (AC 95-100)
Method: as §1

Rhizopus nigricans = assay: Anti-fungal activity in vitro by dilution method; format: cell-based; conditions: Rhizopus stolonifer, 95 to 100% inhibition, read-out: Minimum active concentration (AC 95-100)
Method: as §1

Saccharomyces cerevisiae = assay: Anti-fungal activity in vitro by dilution method; format: cell-based; conditions: 95 to 100% inhibition, read-out: Minimum active concentration (AC 95-100)
Method: as §1

[4] = system: Saccharomyces ellipsoideus; assay: Anti-fungal activity in vitro by dilution method; format: cell-based; conditions: 95 to 100% inhibition, read-out: Minimum active concentration (AC 95-100)
Method: as §1

[5] = system: Saccharomyces pastorianus; assay: Anti-fungal activity in vitro by dilution method; format: cell-based; conditions: 95 to 100% inhibition, read-out: Minimum active concentration (AC 95-100)
Method: as §1

[6] = system: Trichophyton mentagrophytes; assay: Anti-fungal activity in vitro by dilution method; format: cell-based; conditions: 95 to 100% inhibition, read-out: Minimum active concentration (AC 95-100)
Method: as §1

Candida albicans = assay: Anti-fungal activity in vivo, generalised candidosis in mice; design: species or system Candida albicans in mice; conditions: orally or subcutaneously, between 25 mg/kg and 200 mg/kg per day for 4 consecutive days
Toxicity in mice = conditions: mouse, in vivo; mice, oral; read-out: 50% lethal dose (LD50)
[7] = 0.1M hydrochloric acid, read-out: apparent pKa of basic group

Row | SMILES | pKa [2, 7] | bacteriostatic activity towards bacteria (bacteria) | MIC [3] | MIC (Aspergillus fumigatus) | MIC (Aspergillus niger) | MIC (Blastomyces dermatitidis) | MIC (Botrytis cinerea) | MIC (Candida albicans Hi 7) | MIC (Candida albicans IP 200) | MIC (Candida albicans Pa 1) | MIC (Candida krusei IP 208) | MIC (Epidermophyton floccosum) | MIC (Fusarium oxysporum) | MIC (Hansenula anomala) | MIC (Microsporum canis) | MIC (Mucor corymbifer) | MIC (Penicillium digitatum) | MIC (Rhizopus nigricans) | MIC (Saccharomyces cerevisiae) | MIC [4] | other results
1 | Nc1ncnc2c1ncn2C1OC(CC2CCC(N)C(=O)N2)C(O)C1O (stereo not drawn) [35391 RP] | 7.7 | generally devoid of bacteriostatic activity | 300 µg/mL (≈ 826 µM) | > 500 µg/mL | > 500 µg/mL | 60 µg/mL (≈ 165 µM) | > 500 µg/mL | 75 µg/mL (≈ 206 µM) | 70 µg/mL (≈ 193 µM) | 40 µg/mL (≈ 110 µM) | 60 µg/mL (≈ 165 µM) | 250 µg/mL (≈ 688 µM) | > 500 µg/mL | 35 µg/mL (≈ 96.3 µM) | 300 µg/mL (≈ 826 µM) | > 500 µg/mL | 25 µg/mL (≈ 68.8 µM) | > 500 µg/mL | 10 µg/mL (≈ 27.5 µM) | 15 µg/mL (≈ 41.3 µM) | Solubility ([1]; in water, read-out: Solubility): ~10000 µg/mL (≈ 27500 µM); Toxicity (mice): non-toxic; MIC [5]: 7 µg/mL (≈ 19.3 µM); MIC [6]: 350 µg/mL (≈ 963 µM); Anti-fungal activity in vivo against generalised candidosis (Candida albicans): particularly active
2 | Nc1ncnc2c1ncn2C1OC(CC(N)CCC(N)C(=O)O)C(O)C1O (stereo not drawn) [32232 RP] | 8.1 | generally devoid of bacteriostatic activity | > 500 µg/mL | > 500 µg/mL | > 500 µg/mL | 5 µg/mL (≈ 13.1 µM) | > 500 µg/mL | 5 µg/mL (≈ 13.1 µM) | 5 µg/mL (≈ 13.1 µM) | 3 µg/mL (≈ 7.87 µM) | 4 µg/mL (≈ 10.5 µM) | > 500 µg/mL | > 500 µg/mL | 2 µg/mL (≈ 5.24 µM) | > 500 µg/mL | > 500 µg/mL | 15 µg/mL (≈ 39.3 µM) | > 500 µg/mL | 0.3 µg/mL (≈ 0.787 µM) | 0.9 µg/mL (≈ 2.36 µM) | Solubility ([1]; in acetone, internal salt, French Pharmacopoeia): virtually insoluble; Solubility ([1]; in dimethylformamide, internal salt, French Pharmacopoeia): very slightly soluble; Solubility ([1]; in methanol, internal salt, French Pharmacopoeia): very slightly soluble; Solubility ([1]; in water, internal salt, French Pharmacopoeia): easily soluble; pKa ([2]; 0.1M sodium hydroxide, read-out: apparent pKa of weak acid group): 9.8; LD50 (Toxicity in mice): > 1000 mg/kg; MIC [5]: 0.3 µg/mL (≈ 0.787 µM); MIC [6]: > 500 µg/mL; Anti-fungal activity in vivo against generalised candidosis (Candida albicans): particularly active
